In publication PMC7702144, “A Ligand-Directed Nitrophenol Carbonate for Transient in situ Bioconjugation and Drug Delivery” (ChemMedChem, 2020):

Legend:
avidin [1] = target: T1, avidin (Gallus gallus, UniProt P02701); experiment: isothermal titration calorimetry; co-crystal structure […] Å; type: binding
T1 construct: gene AVD; homotetramer by known biology (monomers A and C mentioned)

avidin [2] = target: T1, avidin; experiment: isothermal titration calorimetry; HABA assay; type: binding

T1 sequence (P02701 25-152): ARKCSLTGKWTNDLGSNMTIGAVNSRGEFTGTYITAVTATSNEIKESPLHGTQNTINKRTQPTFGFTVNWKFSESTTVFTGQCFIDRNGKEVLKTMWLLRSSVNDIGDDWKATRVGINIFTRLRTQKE

SMILES | Kd (avidin [1]) [nM] | Kd (avidin [2]) [nM]
O=C(CCCC[C@@H]1SC[C@@H]2NC(=O)N[C@@H]21)NCCc1cc([N+](=O)[O-])ccc1O [compound 7] | 225 | –
CC(C)Cn1cnc2c(NC(=O)OCCOC(=O)Oc3ccc([N+](=O)[O-])cc3CCNC(=O)CCCC[C@@H]3SC[C@@H]4NC(=O)N[C@@H]43)nc3ccccc3c21 [compound 8, LDNPC (8)] | – | 104
